Results: US12410399B2, “Compositions and methods for treating retinal diseases” (The Regents of the University of California, priority 2011, dated 2025)

How the values were obtained:
hRPCs = test: hRPC culture medium and supplement comparison (yield, proliferation); type: cell-based, human; settings: supplement added to culture medium every two days
Protocol: Various serum- and xeno-free cell culture media were tested to determine the optimum condition for propagating RPCs, including DMEM/FF12 (standard, Advanced and KnockOut; Invitrogen), Neurobasal (Invitrogen), Ultraculture (Lonza), and ReNcell (Chemicon). […] “SM” as provided herein refers to standard growth medium based on DMEM/FF12. “UL” is referred to herein as growth medium using Ultraculture as the base medium. Serum-free media was used in the absence of antibiotics or with antibiotics for first two weeks, followed by antibiotic-free media for about 6 weeks. No antifungal agents were used. […] For base medium, standard DMEM/F12, a media supplemented with N2 Supplement, growth factors, glutamine or GLUTAMAX™ (GlutaMax™), was compared with “Advanced DMEM/FF12”, supplemented in the same way.
The effects of cell culture supplementation were also explored. To that end, the N2 supplement was also compared with the B27 xeno-free supplement. […] The effects of additional vitamin C were also tested. A vitamin C supplement was added to the culture medium every two days. […] Finally, supplementation with albumin was tested.
The osmolarity of the cell culture medium was also examined by using media of differing osmolarity (osm), in combination with different commercially available supplements.

hRPC = test: steroid toxicity test on hRPCs (CCK-8 cytotoxicity); type: cell-based, human
Protocol: The cells were also subjected to a steroid toxicity test, since steroids are often used in patients at the time of transplantation.
Cell Counting Kit-8 (CCK-8; Dojindo Molecular Technologies Inc., Gaithersburg, MD) was used to determine cytotoxicity of RPCs. The kit uses WST-8, which, upon bioreduction in the presence of the electron carrier 1-methoxy PMS, produces a water-soluble colored formazan. Ninety-six well plates containing 90 μl of cell suspension per well were inoculated with 10 μl of CCK-8 pre-packaged solution. The plates were incubator for 2 hours and the OD450 of the supernatant was measured. Each experiment was performed in quadruplicate on at least three separate experiments.

In the case of `O=C1O[C@H]([C@@H](O)CO)C(O)=C1O` [vitamin C], the “improvement of hRPC yield” value (hRPCs) was “approximately 30%”.
In the case of `CC1(C)O[C@@H]2C[C@H]3[C@@H]4CCC5=CC(=O)C=C[C@]5(C)[C@@]4(F)[C@@H](O)C[C@]3(C)[C@]2(C(=O)CO)O1` [triamcinolone acetonide], the “effect on cell proliferation” value (hRPC; clinical doses) was “did not appear to affect cell proliferation” and the “effect on donor cell viability” value (hRPC; high doses (about >10 times the expected clinical dose)) was “may decrease donor cell viability”.
